# Results reported in US20260014146A1, “CDK2 INHIBITORS AND METHODS OF USING THE SAME” (Cedilla Therapeutics, Inc., priority 2022, published 2026).
# Tests used:
# CDK2/Cyclin E1 = CDK2/Cyclin E1 (Homo sapiens (Human), UniProt P24941); assay: Caliper LabChip EZ Reader mobility shift assay; assay type: biochemical; details: 2.5 nM CDK2/Cyclin E1 (14-475), 100 μM ATP, 1.5 μM fluorescent peptide; read-out: Caliper Assay (CDK2/CCNE1): IC50
# Procedure: Inhibition of CDK2/Cyclin E1 activity in the presence of compounds of the present disclosure was evaluated using a Caliper LabChip® EZ Reader mobility shift assay. In the assay, activated CDK2/Cyclin E1 catalyzes the phosphorylation of a fluorescently tagged peptide 5-FAM-QSPKKG-CONH2 (PerkinElmer, FL Peptide 18) which induces a difference in capillary electrophoresis mobility. The peptide substrate and product were measured, and the conversion ratio was used to determine the inhibition (as % activity and IC50 values) of CDK2/Cyclin E1. Reactions contained 50 mM HEPES pH 7.5, 10 mM MgCl2, 1 mM EDTA, 2 mM DTT, 0.01% Brij35, 0.5 mg/mL BSA, 0.1% DMSO, 2.5 nM CDK2/Cyclin E1 (14-475), 100 μM ATP, and 1.5 μM fluorescent peptide substrate.
# Dose titrations of inhibitors in 100% DMSO were combined with 3.25 nM CDK2/Cyclin E1 (14-475) and 130 μM of ATP in reaction buffer. The mixtures were incubated for 30 minutes before the addition of fluorescent peptide substrate to initiate the kinase reaction. The final conditions were 2.5 nM CDK2/Cyclin E1 (14-475), 100 μM ATP, and 1.5 μM fluorescent peptide. The reactions were stopped after 100 minutes with the addition of EDTA (6 mM final EDTA concentration). The stopped reactions were analyzed on a Caliper LabChip® EZ Reader II. The conversion ratios were normalized to yield % activity, plotted against compound concentration, and fit to a four-parameter equation to determine the IC50 for each compound.
# [1] = tested on: Kuramochi cells labeled with mApple-H2B; assay: IncuCyte cell proliferation assay; assay type: cell-based; details: Kuramochi RB-WT, cell count 0 to 72 hours; method calls it GI50
# Procedure: IncuCyte® assay was used to measure the effect of disclosed compounds on cell proliferation. Fluorescent microscopy images of cells were taken immediately after compound treatment and 72 hours later. Image analysis software was used to obtain cell counts as a function of compound concentration. Kuramochi cells labeled with mApple-H2B were seeded on 384-well assay-ready plates. Plates were placed in an IncuCyte® (Sartorius) and scanned at 0 and 72 hours. IncuCyte® software was used to count the number of fluorescent nuclei in each well. The fold change in cell count from 0 to 72 hours in wells treated with increasing compounds concentrations (10 pts, 1/2 log dilution, 20 μM top concentration) was normalized to DMSO control wells. The normalized cell counts were fit with dose response curves and a GI50 was calculated.
# Kuramochi cells = assay: BrdU cell proliferation assay; assay type: cell-based; details: 96 h, developed on day 4, read-out: BrdU - KURAMOCHI.1: IC50
# Procedure: A BrdU assay was used as a measure of proliferation based on the DNA replication process of proliferating cells. BrdU, a pyrimidine analog, is added to the cell culture and incorporated into the DNA of proliferating cells. The presence of the BrdU analog was then measured through a colorimetric ELISA. After fixation and permeabilization of cells, peroxidase-conjugated antibody recognizing BrdU is added and allowed to incubate, followed by thorough washing to remove unbound antibody. In order to quantify the amount of bound antibody, peroxidase substrate is added and produces a color that can be measured at 450 nm.
# On day −1, Kuramochi cells (Sekisui XenoTech JCRB0098) were seeded at 2,000 cells/well in columns 2-12 of a 96 well plate (Corning, CLS3596) in 150 uL media and allowed to adhere overnight at 37 degree with 5% CO2. In order to assess specificity of the compounds, Kuramochi RB^KO cells were also plated and treated, as RB^KO cells were not expected to show a proliferative response to CCNE/CDK specific inhibitors.
# On day 0, the source plate was prepared by adding 10 mM compounds and performing 3-fold serial dilutions for a 4-point dose response of each compound. Using a multichannel pipette, 2 μL of the contents of the source plate were stamped into an intermediate plate with 500 μL of RPMI 1640 Media, GlutaMAX Supplement (Life Technologies. 61870127) in each well of a Nunc 96 DeepWell™ plate, non-treated 96 DeepWell plate, 2 mL/well, sterile, natural. 60/cs (Sigma Z717274) and mixed thoroughly. 50 uL from row A of this intermediate plate were added to rows A-H of one plate of previously seeded Kuramochi cells, and each subsequent row of the intermediate plate was added to a full plate of cells.
# On day 4, the plates were developed using the BrdU ELISA Cell Proliferation Assay according to manufacturer's instructions (Roche, 11647229001). Briefly, BrdU was diluted 1:100 in Gibco®. Opti-MEM® and 20 μL/well was added, shaken for 10 minutes at 350 rpm, and then returned to the incubator for 1 hour. Following incubation, the medium was discarded, and the cells were fixed by adding 200 μL of Fix/Denature solution. The anti-BrdU peroxidase antibody was diluted 1:1000 in OptiMEM, added at 100 μL/well, and incubated while shaking (350 rpm) for one hour. Three washes with PBS were performed to remove any unbound antibody, followed by the addition of 100 μL of substrate solution to each well. […] was then added to halt the reaction, and plates were read out using an Envision spectrophotometer (Perkin Elmer) set to read 450 nm absorbance. Background absorbance values from empty wells were subtracted from all samples and then normalized to DMSO treated wells.
Structure (SMILES),IC50 (CDK2/Cyclin E1) [µM],IC50 [1] [µM],IC50 (Kuramochi cells) [µM]
"C[C@@H](OCC1CCCCC1)[C@H](NC(=O)[C@@H]1CN(c2cccc3[nH]ccc23)CC12CN(C(=O)[C@H]1CC1(C)C)C2)C(=O)N1CCCCC1 [Compound I-14, (S)-N-((2S,3R)-3-(cyclohexylmethoxy)-1-oxo-1-(piperidin-1-yl)butan-2-yl)-2-((S)-2,2-dimethylcyclopropanecarbonyl)-6-(1H-indol-4-yl)-2,6-diazaspiro[3.4]octane-8-carboxamide]",> 10,0.5 to 5,> 10
"CNC(=O)[C@@H](NC(=O)[C@@H]1CN(C(=O)c2cnn(Cc3ccccc3)c2)CC12CN(c1nnn[nH]1)C2)[C@@H](C)OCC1CCCCC1 [Compound I-1, (S)-6-(1-Benzyl-1H-pyrazole-4-carbonyl)-N-((2S,3R)-3-(cyclohexylmethoxy)-1-(methylamino)-1-oxobutan-2-yl)-2-(1H-tetrazol-5-yl)-2,6-diazaspiro[3.4]octane-8-carboxamide]",> 10,> 20,> 10
"C[C@@H](OCC1CCCCC1)[C@H](NC(=O)[C@@H]1CN(c2nccc3[nH]ncc23)CC12CN(C(=O)[C@H]1CC1(C)C)C2)C(=O)N1CCCCC1 [Compound I-9, (S)-N-((2S,3R)-3-(cyclohexylmethoxy)-1-oxo-1-(piperidin-1-yl)butan-2-yl)-2-((S)-2,2-dimethylcyclopropanecarbonyl)-6-(1H-pyrazolo[4,3-c]pyridin-4-yl)-2,6-diazaspiro[3.4]octane-8-carboxamide]",> 10,> 20,> 10
"C[C@@H](OCC1CCCCC1)[C@H](NC(=O)[C@@H]1CN(c2nccc3cn[nH]c23)CC12CN(C(=O)[C@H]1CC1(C)C)C2)C(=O)N1CCCCC1 [Compound I-12, (S)-N-((2S,3R)-3-(cyclohexylmethoxy)-1-oxo-1-(piperidin-1-yl)butan-2-yl)-2-((S)-2,2-dimethylcyclopropane-1-carbonyl)-6-(1H-pyrazolo[3,4-c]pyridin-7-yl)-2,6-diazaspiro[3.4]octane-8-carboxamide 2,2,2-trifluoroacetate]",> 10,–,> 10
"C[C@@H](OCC1CCCCC1)[C@H](NC(=O)[C@@H]1CN(c2cccc3cn[nH]c23)CC12CN(C(=O)[C@H]1CC1(C)C)C2)C(=O)N1CCCCC1 [Compound I-11, (S)-N-((2S,3R)-3-(cyclohexylmethoxy)-1-oxo-1-(piperidin-1-yl)butan-2-yl)-2-((S)-2,2-dimethylcyclopropanecarbonyl)-6-(1H-indazol-7-yl)-2,6-diazaspiro[3.4]octane-8-carboxamide]",–,0.5 to 5,0.5 to 5
"CC(C)(O)C(NC(=O)[C@@H]1CN(C(=O)c2cncs2)CC12CN(c1ncco1)C2)c1cccc(C2CCOCC2)n1 (stereo partly drawn) [Compound I-5, (8S)—N-(2-hydroxy-2-methyl-1-(6-(tetrahydro-2H-pyran-4-yl) 239yridine-2-yl)propyl)-2-(oxazol-2-yl)-6-(thiazole-5-carbonyl)-2,6-diazaspiro[3.4]octane-8-carboxamide]",> 10,> 20,–
"C[C@@H](OCC1CCCCC1)[C@H](NC(=O)[C@@H]1CN(c2cccc3[nH]ncc23)CC12CN(C(=O)[C@H]1CC1(C)C)C2)C(=O)N1CCCCC1 [Compound I-13, (S)-N-((2S,3R)-3-(cyclohexylmethoxy)-1-oxo-1-(piperidin-1-yl)butan-2-yl)-2-((S)-2,2-dimethylcyclopropanecarbonyl)-6-(1H-indazol-4-yl)-2,6-diazaspiro[3.4]octane-8-carboxamide]",1 to 10,5 to 20,–

# More lines, main results first:
IC50 (CDK2/Cyclin E1) [µM],Structure (SMILES),IC50 [1] [µM],IC50 (Kuramochi cells) [µM]
0.01 to 0.1,"C[C@@H](OCC12CCC(CC1)OC2)C(NC(=O)[C@@H]1CN(c2ncnc3ncsc23)CC12CN(C(=O)[C@H]1CC1(C)C)C2)C(=O)N1CCC(C(F)(F)F)CC1 (stereo partly drawn) [Compound I-30, (S)-N-((2S,3R)-3-((2-oxabicyclo[2.2.2]octan-4-yl)methoxy)-1-oxo-1-(4-(trifluoromethyl)piperidin-1-yl)butan-2-yl)-2-((S)-2,2-dimethylcyclopropane-1-carbonyl)-6-(thiazolo[4,5-d]pyrimidin-7-yl)-2,6-diazaspiro[3.4]octane-8-carboxamide]",0.5 to 5,–
> 10,"COC[C@H]1CCCN(C(=O)[C@@H](NC(=O)[C@H]2CN(c3nc(C(F)(F)F)cs3)CC23CN(C(=O)[C@H]2CC2(C)C)C3)[C@@H](C)OCC23CCC(CC2)OC3)C1 [I-17 2nd, N-((2S,3R)-3-(2-oxabicyclo[2.2.2]octan-4-ylmethoxy)-1-((S)-3-(methoxymethyl)piperidin-1-yl)-1-oxobutan-2-yl)-2-((S)-2,2-dimethylcyclopropanecarbonyl)-6-(4-(trifluoromethyl)thiazol-2-yl)-2,6-diazaspiro[3.4]octane-8-carboxamide]",> 20,–
> 10,"COC[C@H]1CCCN(C(=O)C(NC(=O)[C@@H]2CN(c3nc(C(F)(F)F)cs3)CC23CN(C(=O)[C@H]2CC2(C)C)C3)[C@@H](C)OCC23CCC(CC2)OC3)C1 (stereo in doubt) [Compound I-17, (S)-N-((2S,3R)-3-(2-oxabicyclo[2.2.2]octan-4-ylmethoxy)-1-((S)-3-(methoxymethyl)piperidin-1-yl)-1-oxobutan-2-yl)-2-((S)-2,2-dimethylcyclopropanecarbonyl)-6-(4-(trifluoromethyl)thiazol-2-yl)-2,6-diazaspiro[3.4]octane-8-carboxamide]",> 20,–
> 10,"CNC(=O)C(NC(=O)[C@@H]1CN(C(=O)c2cncs2)CC12CN(c1nc(C(F)(F)F)co1)C2)[C@@H](C)OCC12CCC(CC1)OC2 (stereo partly drawn) [Compound I-32, (S)-N-((2S,3R)-3-((2-oxabicyclo[2.2.2]octan-4-yl)methoxy)-1-(methylamino)-1-oxobutan-2-yl)-6-(thiazole-5-carbonyl)-2-(4-(trifluoromethyl)oxazol-2-yl)-2,6-diazaspiro[3.4]octane-8-carboxamide]",> 20,–
0.1 to 1,"C[C@@H](OCC1CCCCC1)[C@H](NC(=O)[C@@H]1CN(c2nccc3ncsc23)CC12CN(C(=O)[C@H]1CC1(C)C)C2)C(=O)N1CCCCC1 [Compound I-15, (S)-N-((2S,3R)-3-(cyclohexylmethoxy)-1-oxo-1-(piperidin-1-yl)butan-2-yl)-2-((S)-2,2-dimethylcyclopropanecarbonyl)-6-(thiazolo[5,4-c]pyridin-4-yl)-2,6-diazaspiro[3.4]octane-8-carboxamide]",5 to 20,–
